Measurements reported in PMC10458307, “New Scaffolds of Proteasome Inhibitors: Boosting Anticancer Potential by Exploiting the Synergy of In Silico and In Vitro Methodologies” (Pharmaceuticals, 2023).

Key:
[1] = target: T1, 20S proteasome in Jurkat cell lysates, C-L activity (Homo sapiens, UniProt P28072); assay: Proteasome inhibition assay in cell lysates, Jurkat, C-L
T1 sequence (P28072 35-239 limits assumed): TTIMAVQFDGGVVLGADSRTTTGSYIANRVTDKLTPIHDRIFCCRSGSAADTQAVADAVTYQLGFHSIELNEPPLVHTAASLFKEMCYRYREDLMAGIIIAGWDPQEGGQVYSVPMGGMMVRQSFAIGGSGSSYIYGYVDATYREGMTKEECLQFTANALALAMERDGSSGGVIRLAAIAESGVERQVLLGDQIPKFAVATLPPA
T1 sequence (Q99436 44-277 partner): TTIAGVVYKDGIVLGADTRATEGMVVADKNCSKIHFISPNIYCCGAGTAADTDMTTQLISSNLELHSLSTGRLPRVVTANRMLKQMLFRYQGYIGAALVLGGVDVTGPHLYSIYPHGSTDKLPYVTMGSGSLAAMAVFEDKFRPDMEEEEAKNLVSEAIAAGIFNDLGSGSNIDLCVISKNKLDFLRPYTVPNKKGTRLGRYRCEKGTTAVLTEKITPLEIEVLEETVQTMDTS
Procedure: (§4) Cells were obtained from several cultured cell lines: Jurkat, K562, HT-29, and HCT116. Pellets with 20 × 10^6 cells were prepared and washed with cold sterile phosphate buffered saline (PBS), 1×, pH 7.4 (Gibco, Thermo Fisher Scientific, Paisley, UK). […] Cells were resuspended in buffer containing 50 mM TRIS-HCl pH 7.4 (Nzytech, Lisboa, Portugal), 5 mM MgCl2 (≥98% purity, Merck, Hamburg, Germany), 1 mM DTT (Merck, Hamburg, Germany), 2 mM ATP (≥98% purity, Enzo Life Sciences Inc., Farmingdale, NY, USA), and 250 mM saccharose (Merck, Hamburg, Germany). Glass beads (Merck, Hamburg, Germany) equivalent to the volume of the cell suspension were added, and the mixture was vortexed for 2 min at 4 °C. Beads and cell debris were removed using 5 min centrifugation at 1000× g and 4 °C, followed by 20 min of centrifugation at 10,000× g at 4 °C. Cell lysates containing proteasomes were resuspended in “activity buffer” [50 mM TRIS-HCl (pH 7.4), 5 mM MgCl2, 1 mM DTT, 2 mM ATP (≥98% purity, Enzo Life Sciences Inc., Farmingdale, NY, USA), and 500 µM EDTA (≥98% purity, Merck, Hamburg, Germany)]. Protein concentration was determined using the Pierce™ BCA protocol (Thermo Fisher Scientific, Rockford, IL, USA). […] DMSO was added in an equal volume as used for the untreated compounds as a way to assess/control its influence in the assay. Untreated cells were used as control. In each well of a 96-well plate, 25 µL of lysate were seeded in duplicate with 25 µL of the compound to test; in the control, 25 µL of activity buffer were added to the 25 µL of lysate. A blank (50 µL of activity buffer) was added to the wells in quadruplicate. Cell lysates, pre-treated or not with different concentrations of the test compounds, were incubated for 30 min at 37 °C. […] Stock solutions (10 mM) of each substrate were prepared in DMSO, diluted in activity buffer, and 50 µL were added to all wells (final concentration of each substrate = 100 µM), followed by an incubation at 37 °C for 60 min. Samples fluorescence was measured at an excitation wavelength of 360 nm and emission of 465 nm; the fluorescence measures were performed using the GloMax-Multi + Detection System (Promega Corp., Madison, WI, USA). Activity was evaluated in fluorescence units, after being converted to percentage of proteasome inhibition and, whenever possible, expressed as IC50 by plotting the inhibition data of each compound at different concentrations against the log of the concentration of the inhibitor, using the GraphPad Prism software version 7. At least eight different concentrations of the test compounds were used.

[2] = test system: HCT116 cells; assay: Cell viability, MTT assay, HCT116; type: cell-based, human; details: Homo sapiens, HCT-116; 72 h, mean ± SD
Procedure: (§1) Whenever possible, additional concentrations were tested and IC50 values were determined.
(§2) Human leukemia Jurkat E6.1 T-cell line and K562-cell line were originally obtained from ATCC Collections (Manassas, VA, USA); human HT-29 and HCT116 colorectal carcinoma-cell lines were obtained from ECACC (Porton Down, Porton, UK). Cells were passaged for less than 6 months after and routinely tested for mycoplasma contamination using Mycoalert detection kit (Lonza, Basel, Switzerland). Jurkat, K562, and HT-29 cells were maintained in Roswell Park Memorial Institute (RPMI) 1640 with GlutaMAX™, supplemented with 1% antibiotic mixture (100 µg/mL streptomycin and 100 U/mL penicillin) and 10% heat-inactivated foetal bovine serum (FBS) (all from Gibco, Thermo Fisher Scientific, Paisley, UK). HCT116 cells were maintained in Dulbecco’s Modified Eagle Medium (DMEM) with GlutaMAX™, supplemented with 1% antibiotic mixture (100 µg/mL streptomycin and 100 U/mL penicillin) and 10% heat-inactivated FBS (all from Gibco, Thermo Fisher Scientific, Paisley, UK). Incubation was performed at 37 °C in a 5% CO2 atmosphere. Cells were routinely passaged every 2 or 3 days at 70–90% confluence; TrypLE Express (Gibco, Thermo Fisher Scientific, Paisley, UK) was used as dissociation agent for adherent cells. Trypan blue (Gibco, Thermo Fisher Scientific, Paisley, UK) was used to assess cell viability using the dye exclusion test.
(§3) To assess cell viability, the MTT assay was performed. Jurkat/K562/HT-29/HCT116 cell lines were seeded in triplicate (10,000 cells/well) in 96-well plates with 50 µL of complete medium and incubated at 37 °C, 5% CO2 for 24 h to allow the cells to adhere to the plate (in the case of adherent cells). […] Untreated cells seeded in triplicate were used as control. The blank was performed in triplicate with 100 µL of culture medium. The cells were incubated with the compounds, in triplicate, in 100 µL of total volume, at 37 °C, 5% CO2 for 72 h. […] In suspension cells (Jurkat), 25 µL of MTT were directly added to each well and, after 3 h 30 m of incubation, 100 µL of DMSO were added to solubilize the formazan crystals; in adherent cells (HT-29 and HCT116), the culture medium was removed, 25 µL of MTT were added to each well and, after 3 h 30 m of incubation, upon MTT removal, 100 µL of DMSO were added to solubilize the formazan crystals. After 15 min, the samples absorbance was measured at 570 nm and the percentage of cell viability was determined.

[3] = Cell viability, MTT assay, HCT116; type: cell-based, human; details: human, HCT116 colorectal carcinoma cells
Procedure: as §1, §2, §3

[4] = target: T2, 20S proteasome in HT-29 cell lysates, CT-L activity (Homo sapiens, UniProt P28074); assay: Proteasome inhibition assay in cell lysates, HT-29, CT-L
T2 sequence (P28074 60-263): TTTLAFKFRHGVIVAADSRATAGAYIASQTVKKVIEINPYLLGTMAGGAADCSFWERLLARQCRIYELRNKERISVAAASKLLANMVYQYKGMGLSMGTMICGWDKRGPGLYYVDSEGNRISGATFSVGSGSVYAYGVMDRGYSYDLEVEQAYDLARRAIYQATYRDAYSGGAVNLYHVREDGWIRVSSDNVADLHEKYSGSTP
T2 sequence (P20618 29-241 partner): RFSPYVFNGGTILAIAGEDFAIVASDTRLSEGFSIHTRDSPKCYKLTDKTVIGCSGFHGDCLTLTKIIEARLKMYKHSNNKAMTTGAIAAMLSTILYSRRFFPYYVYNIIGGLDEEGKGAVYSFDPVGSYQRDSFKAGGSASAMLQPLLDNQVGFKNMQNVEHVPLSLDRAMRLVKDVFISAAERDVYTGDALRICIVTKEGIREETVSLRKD
Procedure: as §4

[5] = Cell viability, MTT assay, HT-29; type: cell-based, human; details: human, HT-29 colorectal carcinoma cells, read-out: percentage of cell viability, MTT, HT-29
Procedure: as §1, §2, §3

[6] = target: T3, 20S proteasome in HT-29 cell lysates, C-L activity (Homo sapiens, UniProt P28072); assay: Proteasome inhibition assay in cell lysates, HT-29, C-L
T3 sequence (P28072 35-239 limits assumed): T1 sequence (P28072 35-239 limits assumed)
T3 sequence (Q99436 44-277 partner): T1 sequence (Q99436 44-277 partner)
Procedure: as §4

[7] = target: T4, 20S proteasome in HCT116 cell lysates, C-L activity (Homo sapiens, UniProt P28072); assay: Proteasome inhibition assay in cell lysates, HCT116, C-L
T4 sequence (P28072 35-239 limits assumed): T1 sequence (P28072 35-239 limits assumed)
T4 sequence (Q99436 44-277 partner): T1 sequence (Q99436 44-277 partner)
Procedure: as §4

[8] = target: T5, 20S proteasome in HCT116 cell lysates, CT-L activity (Homo sapiens, UniProt P28074); assay: Proteasome inhibition assay in cell lysates, HCT116, CT-L
T5 sequence (P28074 60-263): T2 sequence (P28074 60-263)
T5 sequence (P20618 29-241 partner): T2 sequence (P20618 29-241 partner)
Procedure: as §4

[9] = at 100 µM, Table 2 legend: bortezomib 10 µM

Cc1ccc2ccccc2c1CSc1ncnc2c1ncn2C1OC(CO)C(O)C1O (stereo not drawn) [Compound 1]
percentage of proteasome inhibition, C-L, cell lysates Jurkat [1, 9]: 19% | inhibition at 10 µM ([1]; read-out: percentage of proteasome inhibition, C-L, cell lysates Jurkat, at 10 µM): 2.27% | inhibition at 100 µM ([1]; read-out: percentage of proteasome inhibition, C-L, cell lysates Jurkat, at 100 µM, Table 2 legend: bortezomib 10 µM): 19.4% | IC50 [2]: 65.7 µM | viability at 72 h, 10 µM ([3]; at 10 µM, read-out: percentage of cell viability, MTT, HCT-116): 95.5% | viability at 72 h, 100 µM ([3]; at 100 µM, read-out: percentage of cell viability, MTT, HCT116): 24% | IC50 [4]: 90.8 µM | percentage of proteasome inhibition, CT-L, cell lysates HT-29 [4, 9]: 62% | inhibition at 10 µM ([4]; read-out: percentage of proteasome inhibition, CT-L, cell lysates HT-29, at 10 µM): 0% | inhibition at 100 µM ([4]; read-out: percentage of proteasome inhibition, CT-L, cell lysates HT-29, at 100 µM, Table 2 legend: bortezomib 10 µM): 62.1% | viability at 72 h, 10 µM ([5]; at 10 µM): 96.7% | viability at 72 h, 100 µM ([5]; at 100 µM): 23.3% | IC50 [6]: 79.4 µM | percentage of proteasome inhibition, C-L, cell lysates HT-29 [6, 9]: 76% | inhibition at 10 µM ([6]; read-out: percentage of proteasome inhibition, C-L, cell lysates HT-29, at 10 µM): 0% | inhibition at 100 µM ([6]; read-out: percentage of proteasome inhibition, C-L, cell lysates HT-29, at 100 µM, Table 2 legend: bortezomib 10 µM): 76% | IC50 [7]: 75.6 µM | percentage of proteasome inhibition, C-L, cell lysates HCT116 ([7]; at 100 µM, Table 2 legend: bortezomib 10 µM, NI = No inhibition): 71% | inhibition at 100 µM ([7]; read-out: percentage of proteasome inhibition, C-L, cell lysates HCT116, at 100 µM, Table 2 legend: bortezomib 10 µM, NI = No inhibition): 71.2% | inhibition at 10 µM ([7]; read-out: percentage of proteasome inhibition, C-L, cell lysates HCT-116, at 10 µM): 0% | IC50 [8]: 76.4 µM | percentage of proteasome inhibition, CT-L, cell lysates HCT116 [8, 9]: 90% | inhibition at 100 µM ([8]; read-out: percentage of proteasome inhibition, CT-L, cell lysates HCT116, at 100 µM, Table 2 legend: bortezomib 10 µM): 90.2% | inhibition at 10 µM ([8]; read-out: percentage of proteasome inhibition, CT-L, cell lysates HCT-116, at 10 µM): 0%
